# Results reported in US20250345292A1, “COMBINATION OF ALBUTEROL AND BUDESONIDE FOR THE TREATMENT OF ASTHMA” (priority 2022, published 2025).
# How the values were obtained:
# [1] = system: patients with uncontrolled moderate-to-severe asthma; assay: Phase 3 clinical trial, as-needed albuterol-budesonide fixed dose combination vs. albuterol alone: efficacy and study medication use; type: in vivo, human; settings: for % of patients with a severe exacerbation / number of patients with a severe exacerbation: as-needed use
# [2] = system: patients with uncontrolled moderate-to-severe asthma; assay: Phase 3 clinical trial, albuterol-budesonide FDC vs. albuterol alone: safety endpoints (adverse events)
# Method: (§1) Safety endpoints (adverse events [AEs] and serious adverse events [SAEs]) were assessed from date of informed consent/assent through the safety follow-up.
# (§2) All randomized patients who received any amount of study drug, classified by the study medication they were randomized to, were included in the efficacy analyses comparing albuterol-budesonide 180/80-μg with albuterol. […] All patients receiving any amount of randomized study medication, and classified by the study medication they actually received, were included for all safety analyses.
# [3] = system: patients with mild-to-moderate asthma; assay: Phase 3 clinical trial, albuterol-budesonide combination vs. mono-components, four times daily for 12 weeks; type: in vivo, human; settings: for Change from baseline in FEV1 AUC0-6 over 12 weeks, LSM / Change from baseline in trough FEV1 over 12 weeks, LSM: four times daily
# Method: A Phase 3 clinical study evaluated contributions of the mono-components albuterol and budesonide to albuterol/budesonide combination efficacy in patients with mild-to-moderate asthma ≥4 years. Patients≥12 years were randomized 1:1:1:1:1 to four-times-daily albuterol/budesonide 180/160 or 180/80 μg, albuterol 180 μg, budesonide 160 μg or placebo for 12 weeks; patients 4-11 years were not included in this analysis set.
# In the study, 1001 patients with mild-to-moderate asthma were randomized 1:1:1:1:1 to ABD 180/160 μg or 180/80 μg, albuterol (A) 180 μg, budesonide (B) 160 μg, or placebo, all four times daily (QID), for 12 weeks. […] Secondary endpoints included time to onset, as measured by 15% improvement in FEV1 within 30 minutes on Day 1, and duration of effect, and Asthma Control Questionnaire-7 (ACQ-7) responder (≥0.5-point reduction from baseline) analysis at Week 12.
# [4] = system: patients with uncontrolled moderate-to-severe asthma; settings: human, in vivo, 180 μg
# Method: as §1, §2
# [5] = comparison 180/80-μg versus albuterol, all patients
# [6] = comparison 180/160-μg versus albuterol, excludes children
# [7] = comparison albuterol-budesonide 180/80-μg versus albuterol, all patients
# [8] = comparison albuterol-budesonide 180/160-μg versus albuterol, excludes children (albuterol n=1,014)
# [9] = AE in ≥2% of patients in any group
# [10] = treatment-related, investigator-assessed AE
# [11] = vs placebo, full analysis set ≥12 years
structure (smiles),measurement,setting,value
"CC(C)(C)NCC(O)c1ccc(O)c(CO)c1 (stereo not shown) [albuterol 180-μg, 4-(2-(tert-butylamino)-1-hydroxyethyl)-2-(hydroxymethyl) phenol]",Annualized severe exacerbation rate,[1]; [5],0.61
same,"Annualized total systemic glucocorticoid exposure (prednisone equivalents), median",[1]; [5],0.0 mg/year
same,Annualized severe exacerbation rate,[1]; [6],0.59
same,"Annualized total systemic glucocorticoid exposure (prednisone equivalents), median",[1]; [6],0.0 mg/year
same,% of patients with a severe exacerbation,[1]; [7],26.1%
same,number of patients with a severe exacerbation,[1]; [7],276
same,% of patients with a severe exacerbation,[1]; [8],26.2%
same,number of patients with a severe exacerbation,[1]; [8],266
same,severe exacerbations requiring ED or urgent care visits (number),[1]; per treatment arm,66
same,severe exacerbations requiring hospitalization (number),[1]; per treatment arm,17
same,"Asthma, %",[2]; [9],3.3%
same,"Back pain, %",[2]; [9],1.9%
same,"Bronchitis, %",[2]; [9],2.6%
same,"COVID-19, %",[2]; [9],4.4%
same,"Headache, %",[2]; [9],4.7%
same,"Hypertension, %",[2]; [9],2.5%
same,"Influenza, %",[2]; [9],1.3%
same,"Nasopharyngitis, %",[2]; [9],5.1%
same,"Sinusitis, %",[2]; [9],2.3%
same,"Upper respiratory tract infection, %",[2]; [9],2.5%
same,"Patients with any AE, %",[2]; Table 1,46.4%
same,frequency of AEs leading to discontinuation of treatment,"[2]; human, in vivo",0.9%
same,frequency of inhaled glucocorticoid-associated adverse events,"[2]; human, in vivo",1.3%
same,deaths (number),[2]; no deaths considered treatment-related,1
same,frequency of any AE,[2]; randomized treatment groups,46.4%
same,dysphonia,[2]; [10],0.4%
same,oral candidiasis,[2]; [10],0.5%
same,oropharyngeal candidiasis,[2]; [10],0.1%
same,responders (onset of effect),"[3]; Day 1, 15% improvement in FEV1 within 30 minutes",42.9%
same,Median time to onset,"[3]; Day 1, 15% improvement in FEV1 within 30 minutes, responders",9.5 min
same,Median duration of effect,"[3]; Day 1, responders",168.2 min
same,percentages of ACQ-7 responders,"[3]; Week 12, ≥0.5-point reduction from baseline",47.2%
same,bronchodilation with repeated use over 1-4 weeks,[3]; compared with placebo,no difference
same,"Change from baseline in FEV1 AUC0-6 over 12 weeks, LSM",[3]; full analysis set ≥12 years,157.2 vs mL
same,"Change from baseline in trough FEV1 over 12 weeks, LSM",[3]; full analysis set ≥12 years,2.7 mL
same,"Change from baseline in FEV1 AUC0-6 over 12 weeks, difference in LSM",[3]; [11],60.5 mL
same,"frequency of SAEs, including deaths",[4],4.5%
"CCCC1O[C@@H]2C[C@H]3[C@@H]4CCC5=CC(=O)C=C[C@]5(C)[C@H]4[C@@H](O)C[C@]3(C)[C@]2(C(=O)CO)O1 (mixture of isomers) [budesonide 160 μg, (RS)-11β,21-dihydroxy-16α,17α-(butylidenebis(oxy)) pregna-1,4-diene-3,20-dione]","Change from baseline in FEV1 AUC0-6 over 12 weeks, LSM",[3]; full analysis set ≥12 years,178.0 mL
same,"Change from baseline in trough FEV1 over 12 weeks, LSM",[3]; full analysis set ≥12 years,108.9 vs mL
same,"Change from baseline in trough FEV1 over 12 weeks, difference in LSM",[3]; [11],73.3 mL
